Assay results taken from PMC12040169 (PLOS Biology, 2025).

assay: in vitro; settings: human, hela cells, % viability

SMILES | viability at 28.5 h, 10 µM [%]
CC1(C)OC(=O)C(=CNC(CCC(=O)O)C(=O)O)C(=O)O1 (centres unmarked) [CBK263510] | 97.3
O=C(NCCN1CCCC1=O)Nc1ccccc1 [CBK263517] | 116
O=C(CCNc1n[nH]c(=O)[nH]c1=O)N/N=C/c1ccc(C(F)(F)F)cc1 [CBK263518] | 87.7
O=C(CNC(=O)c1cccc(F)c1)N/N=C1/C(=O)N(Cc2ccc3c(c2)OCO3)c2ccccc21 [CBK263519] | 102
O=C(NCCO)c1ccc(CSc2nc3sc4c(c3c(=O)[nH]2)CCCC4)cc1 [CBK263522] | 96.6
O=C(O)C(Cc1ccccc1)N1C(=O)/C(=C/C(Cl)=C/c2ccc([N+](=O)[O-])cc2)SC1=S (centres unmarked) [CBK263523] | 95.4
CC(/C=C1\SC(=S)N(C(Cc2ccccc2)C(=O)O)C1=O)=C\c1ccccc1 (centres unmarked) [CBK263524] | 91.7
O=C(Cc1n[nH]c(=O)[nH]c1=O)N/N=C/c1ccc(C(=O)O)cc1 [CBK263525] | 99.5
O=C1C2CCCCC2C(=O)N1c1ccc(Oc2ccc(Br)cc2)cc1 (centres unmarked) [CBK263531] | 116
COc1ccc(N2C(=O)c3ccc(C(=O)OCC(=O)c4ccc(-c5ccccc5)cc4)cc3C2=O)cc1 [CBK263532] | 95.8
CCCc1c(C)nc2ccc(C)cc2c1SCC(=O)O [CBK263537] | 88.6
O=C(NCCNc1ccc([N+](=O)[O-])cc1Cl)c1ccccc1Cl [CBK263541] | 112
O=C(NCCCn1ccnc1)c1cc2c(ccc3ccccc32)oc1=O [CBK263543] | 86
COc1ccc(C(CC(=O)O)CC(=O)O)cc1OC [CBK263545] | 91.9
O=C(O)Cn1c(=O)n(CC(=O)O)c2ccccc21 [CBK263550] | 83
O=[N+]([O-])c1ccccc1NCCNS(=O)(=O)c1ccccc1 [CBK263552] | 89
CCc1c(C)nc2c(C)cccc2c1SCC(=O)O [CBK263554] | 87.6
Cc1oc(C(=O)O)cc1CSC(C)C(=O)O (centres unmarked) [CBK263556] | 93.8
O=C(NCC1CCCO1)C(=O)Nc1ccccc1F (centres unmarked) [CBK263557] | 90.5
O=C(CSc1nnc(-c2ccc3c(c2)OCO3)n1-c1ccccc1)c1ccc(Cl)cc1 [CBK263559] | 100
O=C(O)c1ccc(/C=N/N2CCN(Cc3ccc(Cl)cc3)CC2)cc1 [CBK263561] | 90.5
CC(=O)Nc1ccc(S(=O)(=O)NCCSc2ccc(C)cc2)cc1 [CBK263563] | 111
COc1ccc(/C=C/C(=O)O)cc1S(=O)(=O)N1CCCCCC1 [CBK263565] | 87.8
O=C(O)CCCC(=O)Nc1ccc(O)cc1 [CBK263567] | 90.9
O=C(O)c1ccc(/C=N/NC(=O)c2ccco2)cc1 [CBK263569] | 90.5
Cc1cccc(N(CC(=O)NCc2ccco2)S(=O)(=O)c2ccccc2)c1 [CBK263571] | 87.7
C/C(=N\N1CCN(Cc2cccc3ccccc23)CC1)c1ccncc1 [CBK263574] | 98.9

SMILES | viability at 28.5 h, 10 µM [%]
O=C(NC(=S)N1CCN(CCN2C(=O)c3cccc4cccc(c34)C2=O)CC1)c1ccc2c(c1)OCO2 [CBK263577] | 82.2
Cc1cccc(N(CC(O)CN2C(=O)NC(C)(C)C2=O)S(=O)(=O)c2ccccc2)c1 (centres unmarked) [CBK263582] | 103
N=c1sc(Cc2cc(Cl)ccc2Cl)cn1CC(=O)c1ccccc1 [CBK263584B] | 89.6
COc1ccc(N(CC(O)CN2CCOCC2)S(=O)(=O)c2ccccc2)cc1 (centres unmarked) [CBK263589] | 84.5
Cc1ccc(C2(c3ccc(C)cc3)CC2C(=O)Nc2ccccc2[N+](=O)[O-])cc1 (centres unmarked) [CBK263591] | 93.3
COc1ccc(C(=O)CSc2nnc(-c3ccc4c(c3)OCO4)n2-c2ccccc2)cc1 [CBK263592] | 80.7
O=[N+]([O-])c1ccc(NCCNC(=S)Nc2ccc(Cl)cc2)nc1 [CBK263594] | 85.8
Cc1ccc(OCC(=O)NCCCN(C)C)cc1 [CBK263595] | 98.3
C/C(=N\NS(=O)(=O)c1ccc(C)cc1)C(C)(C)CC(=O)O [CBK263601] | 102
N=C1NC(=O)/C(=C/c2ccc(OC(=O)c3cccc([N+](=O)[O-])c3)cc2)S1 [CBK263606] | 100
COc1ccc(NC(=O)/C(=C\c2ccc3c(c2)OCO3)NC(=O)c2ccco2)cc1 [CBK263607] | 86.3
O=C(Cc1ccccc1)Nc1ccc(Oc2ccc(C(=O)O)c(C(=O)O)c2)cc1 [CBK263611] | 90.3
Cc1cc(C(=O)Nc2ccccc2C(=O)O)ccc1NC(=O)CC(C)C [CBK263616] | 101
COc1ccc(CCNS(=O)(=O)c2cccc([N+](=O)[O-])c2)cc1OC [CBK263618] | 89.5
Cc1cccc(NC2=NC(=O)/C(=C\c3ccc(Cl)cc3)S2)c1C [CBK263619] | 101
CS(=O)(=O)N1CCN(Cc2cc(Br)ccc2O)CC1 [CBK263620G] | 93.9
COc1ccc(OC(C)C(=O)Nc2ccc(C(=O)O)cc2)cc1 (centres unmarked) [CBK263622] | 101
NS(=O)(=O)c1cccc(NC(=O)COc2ccc([N+](=O)[O-])cc2)c1 [CBK263624] | 92.2
COc1ccc(C(=O)NCc2ccc(S(N)(=O)=O)cc2)cc1[N+](=O)[O-] [CBK263629] | 105
COc1cc(/C=N\NC(=O)CSc2nc3ccccc3o2)ccc1O [CBK263630] | 86.5
NNC(=O)CCc1nc2ccc(O)cc2[nH]1 [CBK263633] | 93
Cc1ccc2nc(Nc3nc(C)cc(C)n3)[nH]c2c1 [CBK263634] | 97.9
COc1ccc(-c2cc(C(=O)Nc3ccc(S(N)(=O)=O)cc3)c3ccccc3n2)cc1OC [CBK263635] | 93.1
CCc1cccc(NC(=O)CCc2ccccc2)c1 [CBK263637] | 112
CN(C)S(=O)(=O)N1CCN(Cc2ccccc2)CC1 [CBK263638] | 109
COC(=O)c1ccccc1NC(=O)c1c(C)c(-c2ccc(C)cc2)nc2ccccc12 [CBK263641] | 94.9
CC(=O)Nc1ccc(C(=O)NCc2ccc(S(N)(=O)=O)cc2)cc1 [CBK263642] | 105

SMILES | viability at 28.5 h, 10 µM [%]
O=C(CCN1C(=O)/C(=C\c2cccs2)SC1=S)Nc1cc(Cl)ccc1O [CBK263643] | 98.2
N#C/C(=C\c1ccccc1O)C(=O)Nc1sc2c(c1C(N)=O)CCCC2 [CBK263644] | 101
COc1ccc(OC(C)C(=O)Nc2ccc(S(N)(=O)=O)cc2)cc1 (centres unmarked) [CBK263646] | 96
O=C(O)Cn1c2ccccc2c2nc3ccccc3nc21 [CBK263649] | 81.1
O=C(COc1ccccc1Cl)Nc1cccc(NC(=O)c2cccc(Cl)c2)c1 [CBK263651] | 106
O=[N+]([O-])c1ccc(CN2CCN(Cc3cc(Br)ccc3O)CC2)cc1 [CBK263652G] | 88.9
COc1ccc(Oc2coc3c(CN(C)C)c(O)ccc3c2=O)cc1 [CBK263653] | 95.7
CONc1nc(NC(C)(C)C)nc(OCC#N)n1 [CBK263655] | 85.9
CCOc1ccccc1NC(=O)CC1Sc2ccc(C(F)(F)F)cc2NC1=O (centres unmarked) [CBK263659] | 95.6
O=C1C2C3C=CC(C3)C2C(=O)N1CCN1CCN(S(=O)(=O)/C=C/c2ccccc2)CC1 (centres unmarked) [CBK263663] | 88.4
Cc1ccc(C2CC(=O)C(=CNCCN3CCN(C(=S)Nc4ccccc4)CC3)C(=O)C2)cc1 (centres unmarked) [CBK263665] | 96.3
CC1CCc2c(sc(NC(=O)CCN3C(=O)c4ccccc4C3=O)c2C(N)=O)C1 (centres unmarked) [CBK263667] | 94.4
O=[N+]([O-])c1cccc(S(=O)(=O)NCc2ccccn2)c1 [CBK263669] | 98.4
Cc1ccc(NC(=O)C2C3C=CC(O3)C2C(=O)O)cc1 (centres unmarked) [CBK263670] | 91.4
O=C1CC(c2ccc(Cl)cc2)CC(=O)C1=CNCCN1CCN(C(=O)Nc2ccccc2)CC1 (centres unmarked) [CBK263671] | 95.3
c1ccc(CCNc2nc(-c3cccnc3)nc3ccccc23)cc1 [CBK263672] | 105
O=C(O)C1C2CCC(O2)C1C(=O)NCc1ccco1 (centres unmarked) [CBK263675] | 96.8
CCc1cccc(C)c1NC(=O)C1C2CCC(O2)C1C(=O)O (centres unmarked) [CBK263676] | 88.1
COC(=O)c1c(NC(=O)C2CC=CCC2C(=O)O)sc2c1CCC(c1ccccc1)C2 (centres unmarked) [CBK263683] | 94.8
COc1ccc(NC(=O)C2C3CCC(C3)C2C(=O)O)cc1OC (centres unmarked) [CBK263684] | 95.3
Cc1sc(NC(=O)C2C3C=CC(C3)C2C(=O)O)c(C(N)=O)c1C (centres unmarked) [CBK263685] | 87.6
COc1ccc([N+](=O)[O-])cc1NC(=O)C1C2CCC(C2=C(C)C)C1C(=O)O (centres unmarked) [CBK263686] | 93.2
O=C(/C=C/c1ccccc1)NC(=S)Nc1ccc2oc(-c3ccncc3)nc2c1 [CBK263687] | 93.8
O=C(O)CC1S\C(=N/N=C\C=C/c2ccccc2)N(c2ccc(O)cc2)C1=O (centres unmarked) [CBK263688] | 93
CCN1CCN(Cc2c(O)ccc3c(=O)c(-c4ccccc4OC)c(C(F)(F)F)oc23)CC1 [CBK263692] | 87.6
O=C(NC(=S)Nc1sc2c(c1C(=O)O)CCCC2)c1ccccc1 [CBK263695] | 98.1

same assay, conditions: human, hela cells, % viability, bulk resorufin, single well

SMILES | viability at 28.5 h, 10 µM [%]
CCOc1ccc(N2C(=O)NC(=O)/C(=C/c3cn(CC(=O)Nc4ccccc4)c4ccccc34)C2=O)cc1 [CBK263544] | 90.2
COc1ccc(N2C(=O)NC(=O)/C(=C/c3cn(CC(=O)Nc4ccccc4)c4ccccc34)C2=O)cc1 [CBK263547] | 110
CCc1cc(C)cc(OCCOc2ccccc2C=C2C(=O)NC(=S)NC2=O)c1 [CBK263579] | 120
O=C1NC(=O)C(=Cc2ccccc2OS(=O)(=O)c2ccc3ccccc3c2)C(=O)N1 [CBK263599] | 64
COc1ccc(O)c(CN2CCN(Cc3ccc(Cl)cc3)CC2)c1 [CBK263660] | 110
CCc1ccc(CN2CCN(Cc3cc(Br)ccc3O)CC2)cc1 [CBK263666] | 96.5
